Values of other authors, collected in PubChem BioAssay AID1259409 (Chemical Carcinogenesis Research Information System (CCRIS), 2018).

System: rodent chemically induced tumor inhibition, incidence and multiplicity
Assay: CCRIS tumor inhibitor studies
Details: Dose [Inhibitor]: 0; for outcome: Carcinogen: 7,12-DIMETHYLBENZ[A]ANTHRACENE, 57-97-6, Strain/Sex: SENCAR/FEMALE, Dose [Carcinogen]: 40 NMOL IN 0.2 ML ACETONE ONCE

SMILES: O=c1c(O)c(-c2cc(O)c(O)c(O)c2)oc2cc(O)ccc12
- tumour outcome (control, treated, inhibition, significance) (Carcinogen: (+/-)-7BETA,8ALPHA-DIHYDROXY-9ALPHA,10ALPHA-EPOXY-7,8,9,10-TETRAHYDROBENZO[A]PYR ENE, 58917-67-2, 1400 NMOL (TOTAL DOSE) 10 MIN PRIOR TO CARCINOGEN DOSE INJECTED AS 1/7, 2/7,AND 4/7 OF THE TOTAL ON DAYS 1, 8, AND 15, Route [Inhibitor]: INTRAPERITONEAL, Species: MOUSE, Strain/Sex: ICR/MALE,FEMALE, Target Tissue: Type of Lesion: LUNG: TUMOR, Dose [Carcinogen]: 30 NMOL (TOTAL DOSE) INJECTED IN DOSES OF 1/7, 2/7, AND 4/7 ON DAYS 1,8, AND 15 OF LIFE, RESPECTIVELY, Promoter: NONE USED): 93%, 50%, 46%, p<0.05
- tumour outcome (control, treated, inhibition, significance) (Carcinogen: (+/-)-7BETA,8ALPHA-DIHYDROXY-9ALPHA,10ALPHA-EPOXY-7,8,9,10-TETRAHYDROBENZO[A]PYR ENE, 58917-67-2, 1400 NMOL (TOTAL DOSE) APPLIED 10 MIN PRIOR TO CARCINOGEN DOSE INJECTED AS 1/7, 2/7, AND 4/7 OF THE TOTAL ON DAYS 1,, Route [Inhibitor]: INTRAPERITONEAL, Species: MOUSE, Strain/Sex: ICR/MALE,FEMALE, Target Tissue: Type of Lesion: LUNG: TUMOR, Dose [Carcinogen]: 15 NMOL (TOTAL DOSE) INJECTED IN DOSES OF 1/7, 2/7, AND 4/7 ON DAYS 1, 8, AND 15 OF LIFE, RESPECTIVELY, Promoter: NONE USED): 63%, 41%, 35%, p<0.05
- tumour outcome (control, treated, inhibition, significance) (Carcinogen: (+/-)-7BETA,8ALPHA-DIHYDROXY-9ALPHA,10ALPHA-EPOXY-7,8,9,10-TETRAHYDROBENZO[A]PYR ENE, 58917-67-2, 2500 NMOL IN 200 µL ACETONE:DMSO (90:10) ONCE APPLIED 5 MIN PRIOR TO CARCINOGEN DOSE (STUDY DURATION: 21 WK), Route [Inhibitor]: DERMAL, Species: MOUSE, Strain/Sex: CD-1/FEMALE, Target Tissue: Type of Lesion: SKIN: TUMOR, Dose [Carcinogen]: 200 NMOL IN ACETONE:DMSO (90:10) ONCE, Promoter: 12-O-TETRADECANOYLPHORBOL-13-ACETATE, 16561-29-8): 59%, 68%, -15%, not significant
- tumour outcome (control, treated, inhibition, significance) (Carcinogen: BENZO[A]PYRENE, 50-32-8, 1400 NMOL (TOTAL DOSE) APPLIED 10 MIN PRIOR TO CARCINOGEN DOSE INJECTED AS 1/7, 2/7, AND 4/7 OF THE TOTAL ON DAYS 1,, Route [Inhibitor]: INTRAPERITONEAL, Species: MOUSE, Strain/Sex: ICR/MALE,FEMALE, Target Tissue: Type of Lesion: LUNG: TUMOR, Dose [Carcinogen]: 450 NMOL (TOTAL DOSE) INJECTED IN DOSES OF 1/7, 2/7, AND 4/7 ON DAYS 1, 8, AND 15 OF LIFE, RESPECTIVELY, Promoter: NONE USED): 73%, 79%, -8%, not significant
- tumour outcome (control, treated, inhibition, significance) (Carcinogen: BENZO[A]PYRENE, 50-32-8, 2500 NMOL IN 200 µL ACETONE:DMSO (90:10) ONCE APPLIED 5 MIN PRIOR TO CARCINOGEN DOSE (STUDY DURATION: 21 WK), Route [Inhibitor]: DERMAL, Species: MOUSE, Strain/Sex: CD-1/FEMALE, Target Tissue: Type of Lesion: SKIN: TUMOR, Dose [Carcinogen]: 50 NMOL IN ACETONE:DMSO (90:10) ONCE, Promoter: 12-O-TETRADECANOYLPHORBOL-13-ACETATE, 16561-29-8): 50%, 54%, -8%, not significant

SMILES: CC1(C)[C@@H](O)CC[C@]2(C)[C@H]3C(=O)C=C4[C@H]5C[C@@](C)(C(=O)O)CC[C@]5(C)CC[C@@]4(C)[C@]3(C)CC[C@@H]12
- outcome (10 UMOL IN 0.2 ML DMSO/ACETONE (1:2) 1/D BEGINNING 7 D PRIOR TO CARCINOGEN DOSE (STUDY DURATION: 16 WK), Route [Inhibitor]: DERMAL, Species: MOUSE, Target Tissue: Type of Lesion: SKIN: TUMOR): 100%, 65%, 35%, not calculated at 9 wk; 100%, 100%, 0%, not significant at 16 wk
- outcome (30 UMOL IN DMSO/ACETONE (1:2) 30 MIN PRIOR TO EACH PROMOTER DOSE (STUDY DURATION: 16 WK), Route [Inhibitor]: DERMAL, Species: MOUSE, Target Tissue: Type of Lesion: SKIN: TUMOR): 100%, 10%, 90%, not calculated at 9 wk; 100%, 80%, 20%, not calculated at 16 wk

SMILES: C#C[C@]1(O)CC[C@H]2[C@@H]3CCc4cc(O)ccc4[C@H]3CC[C@@]21C
- tumour outcome (control, treated, inhibition, significance) (Carcinogen: N-METHYL-N-NITROSOUREA, 684-93-5, 0.001% IN DIET BEGINNING POST CARCINOGEN TREATMENT AND CONTINUING FOR 23 WK (STUDY DURATION: 25 WK), Route [Inhibitor]: ORAL, Species: RAT, Strain/Sex: F344/MALE, Target Tissue: Type of Lesion: FORESTOMACH: PAPILLOMA, Dose [Carcinogen]: 50 MG/KG 4/2 WK, Promoter: NONE USED): 8/17 (47%), 4/20 (20%), 57%, not calculated
- tumour outcome (control, treated, inhibition, significance) (Carcinogen: N-METHYL-N-NITROSOUREA, 684-93-5, 0.001% IN DIET BEGINNING POST CARCINOGEN TREATMENT AND CONTINUING FOR 23 WK (STUDY DURATION: 25 WK), Route [Inhibitor]: ORAL, Species: RAT, Strain/Sex: F344/MALE, Target Tissue: Type of Lesion: FORESTOMACH: SQUAMOUS CELL CARCINOMA, Dose [Carcinogen]: 50 MG/KG 4/2 WK, Promoter: NONE USED): 2/17 (12%), 2/20 (10%), 17%, not calculated
- tumour outcome (control, treated, inhibition, significance) (Carcinogen: N-METHYL-N-NITROSOUREA, 684-93-5, 0.001% IN DIET BEGINNING POST CARCINOGEN TREATMENT AND CONTINUING FOR 23 WK (STUDY DURATION: 25 WK), Route [Inhibitor]: ORAL, Species: RAT, Strain/Sex: F344/MALE, Target Tissue: Type of Lesion: HEMATOPOIETIC SYSTEM: LYMPHOMA OR LEUKEMIA, Dose [Carcinogen]: 50 MG/KG 4/2 WK, Promoter: NONE USED): 3/17 (18%), 0/20 (0%), 100%, not calculated
- tumour outcome (control, treated, inhibition, significance) (Carcinogen: N-METHYL-N-NITROSOUREA, 684-93-5, 0.001% IN DIET BEGINNING POST CARCINOGEN TREATMENT AND CONTINUING FOR 23 WK (STUDY DURATION: 25 WK), Route [Inhibitor]: ORAL, Species: RAT, Strain/Sex: F344/MALE, Target Tissue: Type of Lesion: SMALL INTESTINE: ADENOCARCINOMA, Dose [Carcinogen]: 50 MG/KG 4/2 WK, Promoter: NONE USED): 9/17 (53%), 0/20 (0%), 100%, not calculated
- tumour outcome (control, treated, inhibition, significance) (Carcinogen: N-METHYL-N-NITROSOUREA, 684-93-5, 0.001% IN DIET BEGINNING POST CARCINOGEN TREATMENT AND CONTINUING FOR 23 WK (STUDY DURATION: 25 WK), Route [Inhibitor]: ORAL, Species: RAT, Strain/Sex: F344/MALE, Target Tissue: Type of Lesion: SMALL INTESTINE: ADENOMA, Dose [Carcinogen]: 50 MG/KG 4/2 WK, Promoter: NONE USED): 10/17 (59%), 7/20 (35%), 41%, not calculated
- tumour outcome (control, treated, inhibition, significance) (Carcinogen: N-METHYL-N-NITROSOUREA, 684-93-5, 0.001% IN DIET BEGINNING POST CARCINOGEN TREATMENT AND CONTINUING FOR 23 WK (STUDY DURATION: 25 WK), Route [Inhibitor]: ORAL, Species: RAT, Strain/Sex: F344/MALE, Target Tissue: Type of Lesion: THYROID: ADENOCARCINOMA, Dose [Carcinogen]: 50 MG/KG 4/2 WK, Promoter: NONE USED): 1/17 (6%), 0/20 (0%), 100%, not calculated
- tumour outcome (control, treated, inhibition, significance) (Carcinogen: N-METHYL-N-NITROSOUREA, 684-93-5, 0.001% IN DIET BEGINNING POST CARCINOGEN TREATMENT AND CONTINUING FOR 23 WK (STUDY DURATION: 25 WK), Route [Inhibitor]: ORAL, Species: RAT, Strain/Sex: F344/MALE, Target Tissue: Type of Lesion: THYROID: ADENOMA, Dose [Carcinogen]: 50 MG/KG 4/2 WK, Promoter: NONE USED): 3/17 (18%), 0/20 (0%), 100%, not calculated
- tumour outcome (control, treated, inhibition, significance) (Carcinogen: N-METHYL-N-NITROSOUREA, 684-93-5, 0.001% IN DIET BEGINNING POST CARCINOGEN TREATMENT AND CONTINUING FOR 23 WK (STUDY DURATION: 25 WK), Route [Inhibitor]: ORAL, Species: RAT, Strain/Sex: F344/MALE, Target Tissue: Type of Lesion: TONGUE: PAPILLOMA, Dose [Carcinogen]: 50 MG/KG 4/2 WK, Promoter: NONE USED): 2/17 (12%), 2/20 (10%), 16%, not calculated
- tumour outcome (control, treated, inhibition, significance) (Carcinogen: N-METHYL-N-NITROSOUREA, 684-93-5, 0.001% IN DIET BEGINNING POST CARCINOGEN TREATMENT AND CONTINUING FOR 23 WK (STUDY DURATION: 25 WK), Route [Inhibitor]: ORAL, Species: RAT, Strain/Sex: F344/MALE, Target Tissue: Type of Lesion: TONGUE: SQUAMOUS CELL CARCINOMA, Dose [Carcinogen]: 50 MG/KG 4/2 WK, Promoter: NONE USED): 2/17 (12%), 0/20 (0%), 100%, not calculated
- tumour outcome (control, treated, inhibition, significance) (Carcinogen: N-METHYL-N-NITROSOUREA, 684-93-5, 0.001% IN DIET BEGINNING POST CARCINOGEN TREATMENT AND CONTINUING FOR 23 WK (STUDY DURATION: 25 WK), Route [Inhibitor]: ORAL, Species: RAT, Strain/Sex: F344/MALE, Target Tissue: Type of Lesion: URINARY BLADDER: PAPILLOMA, Dose [Carcinogen]: 50 MG/KG 4/2 WK, Promoter: NONE USED): 2/17 (18%), 0/20 (0%), 100%, not calculated
